Source: paper PMC10783034, “Pharmacokinetic and pharmacodynamic evaluation of the atypical tetracyclines chelocardin and amidochelocardin in murine infection models” (Microbiology Spectrum, 2023)
≈ marks a conversion by molar mass, not a printed value.

Experiments:
[1] = tested on: E. coli ATCC 25922; experiment: Neutropenic thigh infection model in CD-1 mice; assay type: in vivo; details: 20 mg/kg IV BID, positive control
Method: (§1) The inoculum for K. pneumoniae ATCC 43816 was prepared freshly as described previously to yield 1 × 10^4 cfu/mL ([56]). The inoculum of the E. coli ATCC 25922 was diluted from a frozen stock to 1.4 × 10^6 cfu/ml. N = 6 animals per group were used for both tested strains. N = 4 mice were used in the pre-treatment group in the neutropenic thigh infection model with E. coli ATCC 25922. Mice were rendered neutropenic by administration of 150 mg/kg and 100 mg/kg cyclophosphamide intraperitoneally on days −4 and −1, respectively. On the day of infection (day 0), mice received 30 µL of the inoculum of K. pneumoniae ATCC 43816 into each lateral thigh under isoflurane anesthesia, corresponding to 6 × 10^2 cfu/mouse. In the model with E. coli, mice received 50 µL of the inoculum of E. coli into each lateral thigh under isoflurane anesthesia, corresponding to 1.4 × 10^5 cfu/mouse. Whilst still under anesthesia, mice were administered a dose of Buprenorphine (0.03 mg/kg) subcutaneously for pain relief. 24 hours after infection, mice were euthanized by slowly introducing CO2 and cardiac puncture to remove blood from the heart immediately after death. Kidneys and thighs were aseptically removed. 24 hours after infection, the clinical score of every individual animal was assessed. Clinical scoring comprises the assessment of different parameters such as spontaneous behavior, posture, appearance, and provoked behavior. Each parameter was assessed with a score of 0 to 3 (ascending severity from 0 to 3). The humane endpoint was reached when the clinical score of a single parameter was 3 or if the total clinical score was higher than 8. Whole blood was collected into Eppendorf tubes coated with 0.5 M EDTA. Organs were homogenized in 0.9% NaCl solution. Organs and blood were plated onto agar plates in duplicates in serial dilutions and incubated at 37°C for 24 hours. 25 µL per dilution of the homogenized organ was spotted onto agar plates. In addition, 1 mL of homogenized organ is streaked onto an agar plate in technical duplicates. If no single colony is observed then, this would result in 0 cfu/mL. Thus, the threshold of detection is 0 log10 cfu/g. The groups used in the different neutropenic thigh infection models are found in Tables S4 through S7. In brief, levofloxacin with 3.3 mg/kg TID IP was used as a positive control antibiotic for the K. pneumoniae model, whereas ciprofloxacin with 20 mg/kg BID IV was used for the E. coli model, respectively. The rationale for TID dosing was based on the PK/PD index of fAUC/MIC for fluoroquinolones ([57] [–] [59]). […] Moreover, CHD and CDCHD were administered at 10 mg/kg SC QID (t = 1,3,5,7 hours), 15 mg/kg SC TID (t = 1,4,7 hours), and 50 mg/kg SC QD (t = 1 hour) (Tables S5 and S6). In the E. coli neutropenic thigh infection model, CHD and CDCHD, respectively, were administered at 50 mg/kg IV QD (t = 1 hour) and 15 mg/kg IV BID (t = 1 and 6 hours) (Table S7).
(§2) For the neutropenic thigh infection model with E. coli ATCC 25922, the thighs were regarded as two independent infection sites throughout the experiment. For statistical analysis, individual thighs (left and right) were treated as separate samples although these were not completely independent values. For the neutropenic thigh infection model with K. pneumoniae ATCC 43816, the individual thighs (left and right) were treated as one sample. For the efficacy models, the non-parametric Kruskal-Wallis test was used with GraphPad Prism 9.4.1. For the ascending urinary tract infection model, an ordinary one-way ANOVA with Dunnett’s multiple comparison test was used with GraphPad Prism 9.4.1.

[2] = tested on: E. coli ATCC 25922; experiment: MIC determination; assay type: cell-based; details: Escherichia coli, ATCC25922; MHB medium; read-out: MIC
Method: (§3) The assay was conducted as described previously ([54]) with the following modifications. The MIC was tested against the K. pneumoniae strain ATCC 43816 in an MHB (not cation-adjusted) medium. CHD and CDCHD were tested in concentrations ranging from 0.078 to 10 µg/mL. Moreover, the MIC was determined for the following strains: K. pneumoniae DSM-30104, E. faecium DSM-20477, S. aureus DSM-346, P. aeruginosa DSM-11128, A. baumannii DSM-30008, E. aerogenes DSM-30053, E. coli ATCC 25922, and E. coli C175-94. All strains were grown in MHB medium, except for E. faecium, which was grown in TSB. CHD, epi-CDH, and CDCHD were tested in concentrations ranging from 0.125 to 64 µg/mL as described previously ([19]).

[3] = Histopathological analysis of kidneys and bladder in the ascending urinary tract infection model (satellite groups); assay type: in vivo, mice; parameters: histopathological score Papilla / histopathological score Bladder: scale not given here
Method: (§4) The model was conducted as described previously ([27], [60]). In brief, n = 21 animals were used per group in the main study, and n = 3 animals per group in satellite groups for histopathological analysis. Three days before the start of the study and during the study, mice had free access to 5% glucose as drinking water. Fresh overnight colonies of E. coli from a 5% horse blood agar plate were suspended in PBS pH 7.4 to approximately 10^9 cfu/mL. Approximately 1 hour before inoculation, mice were treated orally with […] Nurofen (20 mg ibuprofen/mL corresponding to approximately 30 mg/kg) as a pain relief. Urine was removed from the bladder by gently pressing the abdomen and mice were anaesthetized with 0.15 mL Zoletil mix SC. Thereafter, the mice were inoculated. A syringe with a catheter, containing the bacterial suspension was inserted via the urethra into the bladder and 50 µL of the inoculum was slowly injected into the bladder. Hereafter, the mouse was placed in the cage and kept in a warming cabinet until fully awake (approximately 4 hours). The mice were treated with CHD (12 mg/kg SC BID), CDCHD (12 mg/kg SC BID), gentamicin (100 mg/kg SC BID), or vehicle BID (2nd dose was administered approximately 6 hours after the 1st dose on each day) on day 1, that is, first dose around 24 hours post-infection, and day 2 post-inoculation. The mice were observed during the study and scored based on their behavior and clinical signs. Clinical scoring comprised assessment of piloerection in the skin, activity (movement, curiosity), and appearance of eyes. The scoring range comprised 0–4. In our model, a maximum score of 1; thus, only mild discomfort was observed. On day 3 post-inoculation and after sampling urine, mice were euthanized by cervical dislocation, and bladder and kidneys were removed from 21 mice in each treatment group aseptically for cfu determination. The bladder and kidneys were stored at −80°C and later homogenized in 0.5 or 1 mL saline, respectively. Colony counts of urine were determined immediately. From the three additional mice in each treatment group (satellite groups), urine and plasma were sampled and frozen at −80°C, and bladders, kidneys, and liver were collected in 4% buffered formalin. Cfu was determined in urine samples within 2–3 hours after sampling. Frozen organs were thawed and homogenized with steel beads using a tissue lyser. All samples, urine, kidney, and bladder, were 10-fold diluted in saline and 20 µL spots were applied on blue agar plates in duplicates. In addition, undiluted samples of urine (2–100 μL depending on the available amount of urine) were spread on a separate agar plate to determine the colony counts at the lowest possible detection level. All agar plates were incubated for 18–22 hours at 35°C in ambient air.
Approximately 3 µm thick sections of formalin-fixed, paraffin-embedded samples of liver and kidney were analyzed blinded, and randomized to the experimental groups by a trained veterinarian. […] Kidneys were analyzed for changes in the glomeruli (not found), tubular dilation (1 = mild or up to 20% of tubuli affected, 2 = moderate or 25-40% of tubuli affected, 3 = severe 50% or more), and inflammatory infiltrate in the pelvis (1 = mild, 2 = moderate, 3 = severe).

[4] = tested on: E. coli C175-94; experiment: Ascending urinary tract infection model in OF-1 mice; assay type: in vivo; details: CHD/CDCHD 12 mg/kg SC BID, gentamicin 100 mg/kg SC BID
Method: as §4, §2

[5] = tested on: E. coli C175-94; experiment: MIC determination; assay type: cell-based; details: Escherichia coli, C17594; MHB medium; read-out: MIC
Method: as §3

[6] = tested on: K. pneumoniae ATCC 43816; experiment: Neutropenic thigh infection model in CD-1 mice; assay type: in vivo; details: levofloxacin 3.3 mg/kg IP TID
Method: as §1, §2

[7] = tested on: K. pneumoniae ATCC 43816; experiment: MIC determination; assay type: cell-based; details: Klebsiella pneumoniae, ATCC43816; MHB (not cation-adjusted) medium; read-out: MIC
Method: as §3

[8] = infected mice, CHD/CDCHD 12 mg/kg SC BID, gentamicin 100 mg/kg SC BID
[9] = 24 hours after infection, CHD/CDCHD 10 mg/kg SC QD or BID, vs vehicle

O=C(O)c1cn(C2CC2)c2cc(N3CCNCC3)c(F)cc2c1=O [ciprofloxacin, reference compound]
bacterial burden in the thigh, compared with CHD and CDCHD [1]: exerted a stronger effect
MIC [2]: 0.008 µg/mL (≈ 0.0241 µM)

CNC(C)C1CCC(N)C(OC2C(N)CC(N)C(OC3OCC(C)(O)C(NC)C3O)C2O)O1 (stereo not drawn) [gentamicin, reference compound]
histopathological score Bladder ([3]; animal No. 1): 1
histopathological score Bladder ([3]; animal No. 2): 0
histopathological score Bladder ([3]; animal No. 3): 1
histopathological findings in bladder [3, 8]: mild, focal, submucosal inflammatory aggregates
histopathological findings in kidneys [3, 8]: only a mild tubulus dilation without inflammatory cells in the renal pelvis
animals with sterile kidneys ([4]; control animals 23.8%): 95.2%
bacterial burden in kidneys ([4]; day 3, vs vehicle): strong and significant reduction
bacterial burden in the bladder ([4]; day 3, vs vehicle): The same was observed for gentamicin
MIC [5]: 0.75 µg/mL (≈ 1.57 µM)

C[C@H]1COc2c(N3CCN(C)CC3)c(F)cc3c(=O)c(C(=O)O)cn1c23 [levofloxacin, reference compound]
bacterial burden in blood [6, 9]: The same was found in blood
bacterial burden in the thigh [6, 9]: A significant reduction of bacterial burden
bacterial burden in the kidney ([6]; higher-dose studies: 10 mg/kg SC QID, 15 mg/kg SC TID, 50 mg/kg SC QD): did not reduce bacterial burden with statistical significance
MIC [7]: 0.08 µg/mL (≈ 0.221 µM)
